Test results taken from patent publication US20240415918A1, “Polypeptide and its use as a CCK receptor agonist/antagonist” (Centre for Regenerative Medicine & Health, Hong Kong …, priority 2021, published 2024).
*1 amine or outer side, *2 acyl side, *3 side chain or, on linkers, in order; H or OH if unused. Where a SMILES comes first, the peptide text is derived from it. [ ]: non-standard residue; d: D form. Trp(5-OH) = N[C@@H](Cc1c[nH]c2ccc(O)cc12)C(=O)O; dTrp(6-OH) = N[C@H](Cc1c[nH]c2cc(O)ccc12)C(=O)O; Phe(3-Br) = N[C@@H](Cc1cccc(Br)c1)C(=O)O; dGly(nOct) = CCCCCCCC[C@@H](N)C(=O)O; Suc = O=C(CCC(=O)[*:2])[*:1]; Nle = CCCC[C@H](N)C(=O)O

Tests used:
[1] = biological target: T1, CCK-B receptors (CHO-CCK) (Homo sapiens, UniProt P32239); assay: Calcium flux (Fluo-8) antagonist test on CHO-CCK model cells in presence of CCK8; type: cell-based
T1 construct: expressed in transfected cells; host or cells: CHO (CHO-CCK model cells)
T1 sequence (P32239 1-447): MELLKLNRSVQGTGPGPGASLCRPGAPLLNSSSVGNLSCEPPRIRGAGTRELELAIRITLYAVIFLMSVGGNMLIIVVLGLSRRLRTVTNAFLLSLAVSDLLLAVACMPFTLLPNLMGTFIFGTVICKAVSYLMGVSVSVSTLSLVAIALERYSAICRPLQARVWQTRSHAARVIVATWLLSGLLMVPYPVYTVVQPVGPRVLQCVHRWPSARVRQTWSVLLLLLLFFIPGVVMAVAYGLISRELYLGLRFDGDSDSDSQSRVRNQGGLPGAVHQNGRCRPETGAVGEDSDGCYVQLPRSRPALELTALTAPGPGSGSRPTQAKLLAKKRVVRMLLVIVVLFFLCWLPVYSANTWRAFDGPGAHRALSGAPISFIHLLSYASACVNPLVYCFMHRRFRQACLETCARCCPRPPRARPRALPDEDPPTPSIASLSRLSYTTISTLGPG
Procedure: The compound was formulated to a 10 mM mother liquor with DMSO, and then diluted into a series of 9 concentrations with a 3-fold gradient to form a 1000× stock solution. […] Prepare 1×Fluo-8 analysis buffer: mix 9 mL of HHBS, 1 mL of 10× Pluronic F127 Plus and 20 μL of Fluo-8 thoroughly for later use. • 3. Add Fluo-8 dye working solution to the cell plate, 100 μL/well. First incubate in a 37° C. incubator for 30 min, and then take it out and incubate at room temperature in the dark for 30 min. • 4. In the process of incubating cells, the compounds to be detected were prepared with HHBS. • 5. […] The agonism/antagonism EC50 of the compound can be obtained by plotting the fitting curve with the agonism/antagonism percentage as Y-axis and the concentration of the compound as X-axis.

[2] = biological target: T1, CCK-B receptors (CHO-CCK); assay: Calcium flux (Fluo-8) agonist test on CHO-CCK model cells; type: cell-based; settings: for EC50: CHO-CCK cells; for Agonistic Activity (%) at 10 μM: compound at 10 μM, percentage of signal of 20 nM CCK8 alone
Procedure, shortened: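 Agonist-mode Fluo-8 calcium flux read on CHO-CCK cells after dye loading 30 min at 37 °C plus 30 min at room temperature.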

[3] = compound together with 10 nM CCK8
[4] = compound alone, 100% = 20 nM CCK8
[5] = compound together with 10 nM CCK8, bound in μM
[6] = Fluo-8 calcium flux, 100% control = 20 nM CCK8
[7] = in presence of 10 nM CCK8, bound in μM

CSCC[C@H](NC(=O)[C@H](N)Cc1c[nH]c2ccccc12)C(=O)N[C@@H](CC(=O)O)C(=O)N[C@@H](Cc1cc(F)cc(F)c1)C(N)=O [HT-39, D-Trp-Met-Asp-Phe(3,5-DiF)-NH2]
EC50 [1, 3]: 0.631 µM
EC50 [2, 4]: 0.0442 µM
Agonistic Activity (%) at 10 μM [2]: 119.04%

CSCC[C@H](NC(=O)[C@H](N)Cc1c[nH]c2ccccc12)C(=O)N[C@@H](CC(=O)O)C(=O)N[C@@H](Cc1ccc(I)cc1)C(N)=O [HT-37, D-Trp-Met-Asp-Phe(4-I)-NH2]
EC50 [1, 3]: 1.22 µM
EC50 [2, 4]: 0.864 µM
Agonistic Activity (%) at 10 μM [2]: 52.04%

CSCC[C@H](NC(=O)[C@@H](Cc1c[nH]c2ccccc12)NC(C)=O)C(=O)N[C@@H](CC(N)=O)C(=O)N[C@@H](Cc1cccc(Br)c1)C(N)=O [HT-187, Ac-D-Trp-Met-Asn-Phe(3-Br)-NH2] (Ac-[dW]MN[Phe(3-Br)]-NH2)
EC50 [1, 5]: > 10 µM
EC50 ([2]; compound alone, bound in μM): > 10 µM

CSCC[C@H](NC(=O)[C@@H](Cc1c[nH]c2ccccc12)NC(C)=O)C(=O)N[C@@H](CCCCN)C(=O)N[C@@H](Cc1cccc(Br)c1)C(N)=O [HT-188, Ac-D-Trp-Met-Lys-Phe(3-Br)-NH2] (Ac-[dW]MK[Phe(3-Br)]-NH2)
EC50 [1, 3]: 7.55 µM
EC50 [2, 4]: 1.84 µM

CSCC[C@H](NC(=O)[C@H](N)Cc1c[nH]c2ccccc12)C(=O)N[C@@H](CC(=O)O)C(=O)N[C@@H](Cc1cccc(Br)c1)C(N)=O [HT-29, D-Trp-Met-Asp-Phe(3-Br)-NH2]
EC50 [1, 3]: 0.106 µM
EC50 [2, 4]: 0.0081 µM
Agonistic Activity (%) at 10 μM [2]: 85.68%

CSCC[C@H](NC(=O)[C@H](Cc1c[nH]c2ccccc12)NC(C)=O)C(=O)N[C@@H](CC(=O)O)C(=O)N[C@@H](Cc1c[nH]cn1)C(N)=O [HT-191, Ac-Trp-Met-Asp-His-NH2] (Ac-WMDH-NH2)
EC50 [1, 5]: > 10 µM
EC50 ([2]; compound alone, bound in μM): > 10 µM

CCCC[C@H](NC(=O)[C@@H](Cc1c[nH]c2cc(O)ccc12)NC(C)=O)C(=O)N[C@@H](CC(=O)O)C(=O)N[C@@H](Cc1cccc(Br)c1)C(N)=O [HT-227, Ac-(5-HTP)-Nle-Asp-Phe(3-Br)-NH2] (Ac-[dTrp(6-OH)][Nle]D[Phe(3-Br)]-NH2)
EC50 ([1]; in presence of 10 nM CCK8): 3.4 µM
EC50 [2, 6]: 0.022 µM

C[S+]([O-])CC[C@H](NC(=O)[C@H](N)Cc1c[nH]c2ccccc12)C(=O)N[C@@H](CC(=O)O)C(=O)N[C@@H](Cc1cccc(I)c1)C(N)=O (stereo partly drawn) [HT-45, D-Trp-Met(O)-Asp-Phe(3-I)-NH2]
EC50 [1, 3]: 3.37 µM
EC50 [2, 4]: 4.38 µM
Agonistic Activity (%) at 10 μM [2]: 58.98%

CCCCCCCC[C@@H](NC(C)=O)C(=O)N[C@@H](CCCC)C(=O)N[C@@H](CCC(=O)O)C(=O)N[C@@H](Cc1cccc(Br)c1)C(N)=O [HT-265, Ac-Da-Nle-Glu-Phe(3-Br)-NH2] (Ac-[dGly(nOct)][Nle]E[Phe(3-Br)]-NH2)
EC50 [1, 7]: > 10 µM
EC50 [2, 6]: 13 µM

CSCC[C@H](NC(=O)[C@H](Cc1c[nH]c2ccccc12)NC(=O)CNC(=O)[C@H](CCSC)NC(C)=O)C(N)=O [HT-210, Ac-Met-Gly-Trp-Met-NH2] (Ac-MGWM-NH2)
EC50 ([1]; in presence of 10 nM CCK8): 6.45 µM
EC50 [2, 6]: 0.398 µM

CCCC[C@H](NC(=O)[C@H](Cc1c[nH]c2ccccc12)NC(C)=O)C(=O)N[C@@H](CC(=O)O)C(=O)N[C@@H](Cc1c[nH]c2ccccc12)C(N)=O [HT-225, Ac-D-Trp-Nle-Asp-Trp-NH2]
EC50 ([1]; in presence of 10 nM CCK8): 0.475 µM
EC50 [2, 6]: 0.0332 µM

CCCC[C@H](NC(=O)[C@@H](Cc1c[nH]c2ccccc12)NC(=O)CNC(=O)CCC(=O)O)C(=O)N[C@@H](CC(=O)O)C(=O)N[C@@H](Cc1cccc(Br)c1)C(N)=O [HT-202, (Suc)-Gly-D-Trp-Nle-Asp-Phe(3-Br)-NH2] (Suc-G[dW][Nle]D[Phe(3-Br)]-NH2)
EC50 ([1]; in presence of 10 nM CCK8): 0.192 µM
EC50 [2, 6]: 0.0051 µM

CCCC[C@H](NC(=O)[C@@H](Cc1c[nH]c2ccccc12)NC(C)=O)C(=O)N[C@@H](CC(=O)O)C(=O)N[C@@H](Cc1c[nH]c2ccc(O)cc12)C(N)=O [HT-226, Ac-D-Trp-Nle-Asp-(5-HTP)-NH2] (Ac-[dW][Nle]D[Trp(5-OH)]-NH2)
EC50 [1, 7]: > 10 µM
EC50 [2, 6]: 14.2 µM

CSCC[C@H](NC(=O)[C@H](N)Cc1c[nH]c2ccccc12)C(=O)N[C@@H](CC(=O)O)C(=O)N[C@@H](Cc1ccccc1[N+](=O)[O-])C(N)=O [HT-24, D-Trp-Met-Asp-Phe(2-NO2)-NH2]
EC50 [1, 3]: 0.624 µM
EC50 [2, 4]: 0.206 µM
Agonistic Activity (%) at 10 μM [2]: 50.60%
